These results are taken from patent US10537550B2, “Methods of treating underlying inflammation from COPD or asthma” (MEDA PHARMA GMBH & CO. KG, priority 2004, dated 2020).

Series [1] relates to TNFα release from human peripheral blood mononuclear cells (PBMCs). As to the kind of experiment: LPS-induced TNFα release from human PBMCs/monocytes (sandwich ELISA). To be noted: LPS 1 μg/ml; for IC50: Homo sapiens, PBMC, read-out: IC50 of inhibition of TNFα release. Format: cell-based. How it is done: The influence of R,R-glycopyrrolate in combination with glucocorticoids on TNFα release was investigated by using human peripheral blood mononuclear cells (PBMCs). The study was approved by our institutional Ethics Committee according to the International Declarations of Helsinki and Tokyo. PBMCs were isolated from heparinized blood samples of healthy donors by density gradient centrifugation. An equal volume of Hanks buffer (Life Technologies, Heidelberg, Germany) is added to heparinized whole blood samples. 15 ml Histopaque-1077 (Sigma, Deisenhofen, Germany) are overlayed with a maximum of 40 ml of blood/Hanks mixture were centrifuged for 30 min at room temperature (2000 rpm). A visible band containing PBMCs is transferred to a fresh tube and washed twice with Hanks-buffer. Finally cells are seeded in RPMI 1640 Medium (Life Technologies, Heidelberg, Germany) with Glutamax I (Gibco BRL, Eggenstein) and 10% FCS (Boehringer Mannheim, Penzberg, Germany). After isolated, PBMCs were cultured in RPMI 1640 medium supplemented with 10% fetal calf serum (FCS) at 37° C. 5% CO2 overnight. Monocytes were isolated from other cells by adherence method, non-adherent cells were removed by changing the medium. Cells are re-suspended at 10^6 cells/ml and incubated in 500 μl volumes in 24-well tissue culture plates (Falcon Becton Dickinson Labware) at 37° C., 5% CO2. After pre-incubation with test substances (0.5 μl/500 μl medium) for 30 min, cells were stimulated with lipopolysaccharide (LPS) (1 μg/ml). At indicated times cells were sedimented by centrifugation, the supernatants were harvested and kept frozen at −80° C. until protein determination; the cells were lysed by RLT lysis Buffer (Qiagen, Hilden, Germany) and frozen at −80° C. until analysis. […] Plates are read at 450 nm (reference 570 nm) in a microplate reader (Dynatech). The results are expressed as a percentage of the control level of cytokines production by cells stimulated in the absence of the compound.
For orientation: ELISA stands for enzyme-linked immunosorbent assay.

For series [2], the system named is pulmonary M1 and M3 muscarinic receptor subtypes. Particulars: following inhalation of single doses; cited from earlier work.
For series [3] the following is noted: in vivo; cited from earlier work.

Like-named read-outs stand apart in the source and are kept apart here. Bounds are passed on as bounds.

`C[N+]1(C)CC[C@@H](OC(=O)[C@](O)(c2ccccc2)C2CCCC2)C1.[Br-]` [R,R-glycopyrrolate]: in series [1] (alone, up to 10 μmol/l, human monocytes), the “influence on LPS-induced TNFα release” value is on record as “did not influence”.
As to `C[N+]1(C)[C@@H]2C[C@@H](OC(=O)C(O)(c3cccs3)c3cccs3)C[C@H]1[C@@H]1O[C@@H]12` [Tiotropium], the duration of bronchodilation in series [2] is 24 h.
Take `CCCC1O[C@@H]2C[C@H]3[C@@H]4CCC5=CC(=O)C=C[C@]5(C)[C@H]4[C@@H](O)C[C@]3(C)[C@]2(C(=O)CO)O1` (some centres unmarked) [budesonide]: the IC50 (in general, the concentration that gives 50% inhibition) in series [1] (budesonide alone, human monocytes) turned out to be 0.55 ± 0.13 nM; in series [1] (simultaneous addition of 10 μmol/l R,R-glycopyrrolate, p=0.0251), 0.13 ± 0.03 nM.
For `C[C@@H]1C[C@H]2[C@@H]3C[C@H](F)C4=CC(=O)C=C[C@]4(C)[C@@]3(F)[C@@H](O)C[C@]2(C)[C@@]1(O)C(=O)SCF` [fluticasone], in series [3], the oral bioavailability was below 1%.
